Experimental data from patent US8309718B2, “4-pyrazolyl-N-arylpyrimidin-2-amines and 4-pyrazolyl-N-heteroarylpyrimidin-2-amines as janus kinase inhibitors” (Incyte Corporation, priority 2007, dated 2012).

Molecular target: T1, human JAK2 (Homo sapiens, UniProt O60674)
T1 construct: JAK2 (a.a. 828-1132); His tag (N); made in house; host or cells: insect cells (baculovirus)
Experiment: In vitro JAK kinase assay (HTRF, phosphorylation of biotinylated peptide)
Assay type: biochemical
Conditions: catalytic domain a.a. 828-1132, 30 μM ATP, 500 nM peptide, room temperature 1 hr; read-out: JAK-2 IC50
Summary of the method: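 IC50 from HTRF detection (Eu-Py20 antibody, SA-APC) of biotinylated-peptide phosphorylation (500 nM), run 1 h at RT. Enzyme: N-His human JAK2 kinase domain a.a. 828-1132 from insect cells; ATP 30 μM; buffer 50 mM Tris pH 7.8 with NaCl, DTT, BSA.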

T1 sequence (O60674 828-1132): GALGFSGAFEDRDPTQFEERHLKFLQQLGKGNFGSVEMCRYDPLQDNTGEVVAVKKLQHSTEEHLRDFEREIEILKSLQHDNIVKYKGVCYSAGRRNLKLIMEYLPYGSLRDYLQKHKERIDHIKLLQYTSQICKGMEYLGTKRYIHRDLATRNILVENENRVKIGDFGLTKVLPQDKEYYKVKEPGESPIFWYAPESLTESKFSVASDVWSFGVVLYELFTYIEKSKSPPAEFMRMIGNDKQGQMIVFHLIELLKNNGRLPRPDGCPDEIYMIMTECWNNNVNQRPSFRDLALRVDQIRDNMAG

SMILES | IC50
N#CCC(C1CC1)n1cc(-c2ccnc(Nc3ccc(N4CCOCC4=O)cc3)n2)cn1 (racemic) [Example 180, 3-cyclopropyl-3-(4-(2-(4-(3-oxomorpholino)phenylamino)pyrimidin-4-yl)-1H-pyrazol-1-yl)propanenitrile] | < 100 nM
N#CCC(C1CC1)n1cc(-c2ccnc(Nc3cccc(-c4cnco4)c3)n2)cn1 (racemic) [Example 181, 3-cyclopropyl-3-(4-(2-(3-(oxazol-5-yl)phenylamino)pyrimidin-4-yl)-1H-pyrazol-1-yl)propanenitrile] | < 100 nM
C[C@@H]1CN(S(=O)(=O)Nc2ccc(Nc3nccc(-c4cnn(C(CC#N)C5CCCC5)c4)n3)cc2)C[C@H](C)O1 (mixture of isomers) [Example 182, N-(4-(4-(1-(2-cyano-1-cyclopentylethyl)-1H-pyrazol-4-yl)pyrimidin-2-ylamino)phenyl)-(cis)-2,6-dimethylmorpholine-4-sulfonamide] | < 100 nM
CS(=O)(=O)CS(=O)(=O)Nc1ccc(Nc2nccc(-c3cnn(C(CC#N)C4CCCC4)c3)n2)cc1 (racemic) [Example 184, N-(4-(4-(1-(2-cyano-1-cyclopentylethyl)-1H-pyrazol-4-yl)pyrimidin-2-ylamino)phenyl)-1-(methylsulfonyl)methanesulfonamide] | < 100 nM
N#CCC(C1CCCC1)n1cc(-c2ccnc(Nc3ccc(NC(=O)c4cc(F)cc(F)c4)cc3)n2)cn1 (racemic) [Example 185, N-(4-(4-(1-(2-cyano-1-cyclopentylethyl)-1H-pyrazol-4-yl)pyrimidin-2-ylamino)phenyl)-3,5-difluorobenzamide] | < 100 nM
Cn1ccc(S(=O)(=O)Nc2ccc(Nc3nccc(-c4cnn(C(CC#N)C5CCCC5)c4)n3)cc2)n1 (racemic) [Example 190, N-(4-(4-(1-(2-cyano-1-cyclopentylethyl)-1H-pyrazol-4-yl)pyrimidin-2-ylamino)phenyl)-1-methyl-1H-pyrazole-3-sulfonamide] | < 100 nM
Cc1nc(-c2ccc(S(=O)(=O)Nc3ccc(Nc4nccc(-c5cnn(C(CC#N)C6CCCC6)c5)n4)cc3)s2)cs1 (racemic) [Example 193, N-(4-(4-(1-(2-cyano-1-cyclopentylethyl)-1H-pyrazol-4-yl)pyrimidin-2-ylamino)phenyl)-5-(2-methylthiazol-4-yl)thiophene-2-sulfonamide] | < 100 nM
Cc1cccc(S(=O)(=O)Nc2ccc(Nc3nccc(-c4cnn(C(CC#N)C5CCCC5)c4)n3)cc2)n1 (racemic) [Example 194, N-(4-(4-(1-(2-cyano-1-cyclopentylethyl)-1H-pyrazol-4-yl)pyrimidin-2-ylamino)phenyl)-6-methylpyridine-2-sulfonamide] | < 100 nM
N#CCC(C1CCCC1)n1cc(-c2ccnc(Nc3ccc(NS(=O)(=O)c4ccc(-c5ccccn5)s4)cc3)n2)cn1 (racemic) [Example 195, N-(4-(4-(1-(2-cyano-1-cyclopentylethyl)-1H-pyrazol-4-yl)pyrimidin-2-ylamino)phenyl)-5-(pyridin-2-yl)thiophene-2-sulfonamide] | < 100 nM
N#CCC(C1CCCC1)n1cc(-c2ccnc(Nc3ccc(NS(=O)(=O)c4ccc(Cl)s4)cc3)n2)cn1 (racemic) [Example 196, 5-chloro-N-(4-(4-(1-(2-cyano-1-cyclopentylethyl)-1H-pyrazol-4-yl)pyrimidin-2-ylamino)phenyl)thiophene-2-sulfonamide] | < 100 nM
N#CCC(C1CCCC1)n1cc(-c2ccnc(Nc3ccc(NS(=O)(=O)c4ccc(N5CCOCC5)nc4)cc3)n2)cn1 (racemic) [Example 197, N-(4-(4-(1-(2-cyano-1-cyclopentylethyl)-1H-pyrazol-4-yl)pyrimidin-2-ylamino)phenyl)-6-morpholinopyridine-3-sulfonamide] | < 100 nM
Cn1ccc(S(=O)(=O)Nc2cccc(Nc3nccc(-c4cnn(C(CC#N)C5CCCC5)c4)n3)c2)n1 (racemic) [Example 201, N-(3-(4-(1-(2-cyano-1-cyclopentylethyl)-1H-pyrazol-4-yl)pyrimidin-2-ylamino)phenyl)-1-methyl-1H-pyrazole-3-sulfonamide] | < 100 nM
CN(C)S(=O)(=O)Nc1cccc(Nc2nccc(-c3cnn(C(CC#N)C4CCCC4)c3)n2)c1 (racemic) [Example 202, NA-(3-(4-(1-(2-cyano-1-cyclopentylethyl)-1H-pyrazol-4-yl)pyrimidin-2-ylamino)phenyl)-N,N-dimethylsulfamide] | < 100 nM
N#CCC(C1CCCC1)n1cc(-c2ccnc(Nc3ccc(C(=O)N4[C@@H]5CC[C@H]4C[C@@H](O)C5)cc3)n2)cn1 (mixture of isomers) [Example 215, 3-cyclopentyl-3-(4-(2-(4-((3-endo)-3-hydroxy-8-azabicyclo[3.2.1]octane-8-carbonyl)phenylamino)pyrimidin-4-yl)-1H-pyrazol-1-yl)propanenitrile] | < 100 nM

The remaining lines, values ahead:

IC50 | SMILES
< 100 nM | N#CCC(C1CCCC1)n1cc(-c2ccnc(Nc3ccc(NC(=O)c4ccccc4)cc3)n2)cn1 (racemic) [Example 183, N-(4-(4-(1-(2-cyano-1-cyclopentylethyl)-1H-pyrazol-4-yl)pyrimidin-2-ylamino)phenyl)benzamide]
< 100 nM | CN(C)S(=O)(=O)Nc1ccc(Nc2nccc(-c3cnn(C(CC#N)C4CCCC4)c3)n2)cc1 (racemic) [Example 186, NA-(4-(4-(1-(2-cyano-1-cyclopentylethyl)-1H-pyrazol-4-yl)pyrimidin-2-ylamino)phenyl)-N,N-dimethylsulfamide]
< 100 nM | Cc1cc(C(=O)Nc2ccc(Nc3nccc(-c4cnn(C(CC#N)C5CCCC5)c4)n3)cc2)no1 (racemic) [Example 187, N-(4-(4-(1-(2-cyano-1-cyclopentylethyl)-1H-pyrazol-4-yl)pyrimidin-2-ylamino)phenyl)-5-methylisoxazole-3-carboxamide]
< 100 nM | N#CCC(C1CCCC1)n1cc(-c2ccnc(Nc3ccc(NC(=O)c4ccno4)cc3)n2)cn1 (racemic) [Example 188, N-(4-(4-(1-(2-cyano-1-cyclopentylethyl)-1H-pyrazol-4-yl)pyrimidin-2-ylamino)phenyl)isoxazole-5-carboxamide]
< 100 nM | Cc1noc(C)c1C(=O)Nc1ccc(Nc2nccc(-c3cnn(C(CC#N)C4CCCC4)c3)n2)cc1 (racemic) [Example 189, N-(4-(4-(1-(2-cyano-1-cyclopentylethyl)-1H-pyrazol-4-yl)pyrimidin-2-ylamino)phenyl)-3,5-dimethylisoxazole-4-carboxamide]
< 100 nM | N#CCC(C1CCCC1)n1cc(-c2ccnc(Nc3ccc(N4CCCS4(=O)=O)cc3)n2)cn1 (racemic) [Example 192, 3-cyclopentyl-3-(4-(2-(4-(1,1-dioxidoisothiazolidin-2-yl)phenyl)aminopyrimidin-4-yl)-1H-pyrazol-1-yl)propanenitrile]
< 100 nM | N#CCC(C1CCCC1)n1cc(-c2ccnc(Nc3ccc(NC(=O)O[C@@H]4CCOC4)cc3)n2)cn1 (mixture of isomers) [Example 199, (R)-tetrahydrofuran-3-yl 4-(4-(1-(2-cyano-1-cyclopentylethyl)-1H-pyrazol-4-yl)pyrimidin-2-ylamino)phenylcarbamate]
< 100 nM | N#CCC(C1CCCC1)n1cc(-c2ccnc(Nc3ccc(NC(=O)CN4CCCC4)cc3)n2)cn1 (racemic) [Example 203, N-(4-(4-(1-(2-cyano-1-cyclopentylethyl)-1H-pyrazol-4-yl)pyrimidin-2-ylamino)phenyl)-2-(pyrrolidin-1-yl)acetamide]
< 100 nM | N#CCC(C1CCCC1)n1cc(-c2ccnc(Nc3ccc(NC(=O)CN4CCC(O)CC4)cc3)n2)cn1 (racemic) [Example 205, N-(4-(4-(1-(2-cyano-1-cyclopentylethyl)-1H-pyrazol-4-yl)pyrimidin-2-ylamino)phenyl)-2-(4-hydroxypiperidin-1-yl)acetamide]
< 100 nM | N#CCC(C1CCCC1)n1cc(-c2ccnc(Nc3ccc(NC(=O)CN4CCNC(=O)C4)cc3)n2)cn1 (racemic) [Example 206, N-(4-(4-(1-(2-cyano-1-cyclopentylethyl)-1H-pyrazol-4-yl)pyrimidin-2-ylamino)phenyl)-2-(3-oxopiperazin-1-yl)acetamide]
< 100 nM | N#CCC(C1CCCC1)n1cc(-c2ccnc(Nc3ccc(NC(=O)CN4CCOCC4)cc3)n2)cn1 (racemic) [Example 207, N-(4-(4-(1-(2-cyano-1-cyclopentylethyl)-1H-pyrazol-4-yl)pyrimidin-2-ylamino)phenyl)-2-morpholinoacetamide]
< 100 nM | N#CCC(C1CCCC1)n1cc(-c2ccnc(Nc3ccc(NC(=O)CNCC4CCOCC4)cc3)n2)cn1 (racemic) [Example 208, N-(4-(4-(1-(2-cyano-1-cyclopentylethyl)-1H-pyrazol-4-yl)pyrimidin-2-ylamino)phenyl)-2-((tetrahydro-2H-pyran-4-yl)methylamino)acetamide]
< 100 nM | N#CCC(C1CCCC1)n1cc(-c2ccnc(Nc3ccc(NC(=O)CNCC4CC4)cc3)n2)cn1 (racemic) [Example 210, N-(4-(4-(1-(2-cyano-1-cyclopentylethyl)-1H-pyrazol-4-yl)pyrimidin-2-ylamino)phenyl)-2-(cyclopropylmethylamino)acetamide]
< 100 nM | N#CCC(C1CCCC1)n1cc(-c2ccnc(Nc3ccc(C(=O)N4CCOCC4)cc3)n2)cn1 (racemic) [Example 213, 3-cyclopentyl-3-(4-(2-(4-(morpholine-4-carbonyl)phenylamino)pyrimidin-4-yl)-1H-pyrazol-1-yl)propanenitrile]
< 100 nM | N#CCC(C1CCCC1)n1cc(-c2ccnc(Nc3ccc(C(=O)NCC4CCOCC4)cc3)n2)cn1 (racemic) [Example 214, 4-(4-(1-(2-cyano-1-cyclopentylethyl)-1H-pyrazol-4-yl)pyrimidin-2-ylamino)-N-((tetrahydro-2H-pyran-4-yl)methyl)benzamide]
